According to EP4640238A1, “THERAPEUTIC AGENT FOR PULMONARY DISEASE, HEPATIC DISEASE OR RENAL DISEASE, WHICH CONTAINS PGAM-CHK1 BINDING INHIBITOR” (Kyoto University, priority 2022, dated 2024):

How the values were obtained:
[1] = test system: BLM pulmonary fibrosis model mice; assay: Survival rate in BLM pulmonary fibrosis model mice; format: in vivo, C57BL6 mice; conditions: 2.5 mg/kg bleomycin intratracheally; 20 mg/kg nutlin 3b intraperitoneally 4 times a week for 2 weeks from day 8; deaths within 21 days; versus solvent only
Procedure: 2.5 mg/kg of bleomycin was intratracheally administered to 10- to 12-week old C57BL6 mice. Starting 8 days after bleomycin administration, 20 mg/kg of nutlin 3b or the solvent alone was intraperitoneally administered 4 times a week for 2 weeks. The mice were checked for survival every day, and the number of mice that died within 21 days after bleomycin administration was counted. In this test, 6 mice in the nutlin 3b non-administration group (solvent only) and 7 mice in the nutlin 3b administration group were used. […] In the figure, 3B indicates nutlin 3b. The same applies to the following figures.

[2] = test system: fibrosis-related genes (Col1a2, Col5a2, Fibronectin, and Toropelastin); assay: Expression of fibrosis-related mRNA in lung tissue of BLM pulmonary fibrosis model mice (real-time PCR); format: in vivo, ICR mice; conditions: lung tissue 21 days after 2.5 mg/kg bleomycin; 14, 20, and 24 mg/kg intraperitoneally 4 times a week for 2 weeks; versus solvent
Procedure: 2.5 mg/kg of bleomycin was intratracheally administered to 10- to 12-week old ICR mice. Starting 8 days after bleomycin administration, 14, 20, and 24 mg/kg of nutlin 3b or the solvent alone were intraperitoneally administered 4 times a week for 2 weeks. 21 days after bleomycin administration, mice in the nutlin 3b administration group or solvent administration group were sacrificed to sample their lung tissue. In the test, 3 mice in the nutlin 3b non-administration group (solvent only) and 3 mice in the nutlin 3b administration group were used. The same applies to the following tests. The collected lung tissue was immersed in a sufficient amount of RNAlater and stored at 4°C overnight. The next day, the lung tissue was removed from the RNAlater, and the total RNA was collected using TRIzole. Then, mRNA was reverse-transcribed using a ReverTra Ace qPCR RT kit to prepare cDNA. Real-time PCR was performed on the prepared cDNA using primers specific to fibrosis-related genes (Col1a2, Col5a2, Fibronectin, and Toropelastin).

[3] = test system: BLM pulmonary fibrosis model mice; assay: Pathological comparison: Masson's trichrome staining of lung tissue, quantification of fibrosis regions; format: in vivo, ICR mice; conditions: blue area quantified, 14, 20, and 24 mg/kg intraperitoneally 4 times a week for 2 weeks, day 21 after bleomycin
Procedure: 2.5 mg/kg of bleomycin was intratracheally administered to 10- to 12-week old ICR mice. Starting 8 days after bleomycin administration, 14, 20, and 24 mg/kg of nutlin 3b or the solvent alone were intraperitoneally administered 4 times a week for 2 weeks. 21 days after bleomycin administration, mice in the nutlin 3b administration group or solvent administration group were sacrificed to sample their lung tissue. The lung tissue was fixed by treatment with 4% paraformaldehyde for 48 hours. The fixed lung tissue was embedded in paraffin, and then sliced into 5 µm thin slices, and set on microscope slides. Masson's trichrome staining was performed on the thin slices of the lung tissue to evaluate fibrosis. Specifically, in Masson's trichrome staining, nuclei are stained black-brown with iron hematoxylin staining, cytoplasm is stained red with […], and collagen fibers are stained blue with aniline blue. Accordingly, to evaluate fibrosis, the stained image was separated into the three primary colors using ImageJ (image analysis software), and the area which stained blue was quantified as the fibrosis regions. The obtained signals of each group were expressed as relative values to the control group (PBS + PEG). The results of Masson's trichrome staining are shown in Fig. 17-1, and the quantification results of the fibrosis regions are shown in Fig. 17-2.

[4] = test system: FoxM1 and its downstream target genes (Plk1, Ccnb2, Aspm, and Cep55); assay: Expression of FoxM1 and its downstream target genes in lung tissue of BLM pulmonary fibrosis model mice (real-time PCR); format: in vivo, ICR mice; conditions: lung tissue 21 days after 2.5 mg/kg bleomycin; 20 mg/kg intraperitoneally 4 times a week for 2 weeks; versus solvent
Procedure: The influence of the nutlin 3b administration to FoxM1 target factors in bleomycin-induced pulmonary fibrosis was examined. Specifically, 2.5 mg/kg of bleomycin was intratracheally administered to 10- to 12-week old ICR mice. Starting 8 days after bleomycin administration, 20 mg/kg of nutlin 3b or the solvent alone was intraperitoneally administered 4 times a week for 2 weeks. 21 days after bleomycin administration, mice in the nutlin 3b administration group and the solvent administration group were sacrificed to sample their lung tissue. In the test, 3 mice in the nutlin 3b non-administration group (solvent only) and 3 mice in the nutlin 3b administration group were used. The collected lung tissue was immersed in a sufficient amount of RNAlater and stored at 4°C overnight. The next day, the lung tissue was removed from the RNAlater, and the total RNA was collected using TRIzole. Then, mRNA was reverse-transcribed using a ReverTra Ace qPCR RT kit to prepare cDNA. Real-time PCR was performed on the prepared cDNA using primers specific to FoxM1 and its downstream target genes (Plk1, Ccnb2, Aspm, and Cep55).

[5] = test system: aged mice; assay: Effect on the lungs of aged mice (HE staining and p21 antibody staining); format: in vivo, C57BL/6J; conditions: 20-month-old aged mice, once a week for 3 months; versus Vehicle
Procedure: (§1) Nutlin 3b was administered to C57BL/6J, 20-month-old aged mice once a week for 3 months. After 3 months, the mice were sacrificed, and HE staining and mRNA expression analysis of the lung tissue were performed. As a comparison subject, the lung tissue of young mice (C57BL/6J, 10-week old) and aged mice with no administration of nutlin 3b (Vehicle) were used.

[6] = test system: aged mice; assay: Effect on the kidneys of aged mice (HE staining, hyalinization, marker expression); format: in vivo, C57BL/6J; conditions: 20-month-old aged mice, once a week for 3 months, versus Vehicle
Procedure: as §1, with “renal” for “lung”
Also, the increase in senescence markers and SASP markers induced in aged renal tissue was suppressed by nutlin 3b administration (Fig. 20-3).

[7] = test system: PGAM-Chk1 binding; assay: PGAM-Chk1 binding inhibition HTP screening using a Cell-base NanoBiT system (primary screening); format: cell-based
Excerpt: Examples of a preferred method for measuring the binding level between PGAM and Chk1 include, in addition to the above, a method that uses PGAM and Chk1 labeled with tags that can bind to each other, and specific examples thereof include the following method that uses a Nanobit system. In Nanobit, a large subunit and a small subunit of a photoprotein prepared based on a luciferase are attached as tags to PGAM and Chk1, respectively. These tags have structures that can bind to each other. […] By measuring the intensity of the luminescence signal at this time, the binding level can be measured with high sensitivity and high quantitativity.
PGAM-Chk1 binding inhibition HTP (high-throughput) screening using a Cell-base NanoBiT system was carried out. Specifically, the screening was carried out by the following method. In NanoBiT, a large subunit and a small subunit of a photoprotein prepared based on a luciferase are attached as tags to PGAM and Chk1, respectively. These tags have structures that can bind to each other. […] By measuring the intensity of the luminescence signal at this time, the binding level can be measured with high sensitivity and high quantitativity. […] Therefore, a substance that inhibits the binding of PGAM and Chk1 was searched from the drug library, with the decrease in the luminescence signal as an indicator. […]

Row | Compound | survival rate [1] | expression of the fibrosis-related genes [2] | fibrosis areas induced by bleomycin in the lungs [3] | expression of FoxM1 target genes [4] | p21-positive cells in aged lung tissue [5] | increase in senescence markers and SASP markers induced in aged renal tissue [6] | glomerular hyalinization (four-level score) ([6]; HE staining of renal tissue) | interstitial hyalinization positive rate ([6]; HE staining of renal tissue) | luminescence signal (binding level between PGAM and Chk1) [7]
1 | COc1ccc(C2=N[C@H](c3ccc(Cl)cc3)[C@H](c3ccc(Cl)cc3)N2C(=O)N2CCNC(=O)C2)c(OC(C)C)c1 [nutlin 3b, Nutlin-3b] | improved the survival rate | decreased | smaller than those of the control group | suppression of the expression of FoxM1 target genes was observed | significantly suppressed | suppressed | significant improvement in hyalinization | significant improvement in hyalinization | –
2 | nutlin | – | – | – | – | – | – | – | – | luminescence signal decreases
